Like-named read-outs stand apart in the source and are kept apart here.
Assays:
P. aeruginosa = assay: Disc diffusion zone of inhibition (Example 2); assay type: cell-based, Pseudomonas aeruginosa; conditions: for zone of inhibition at 200 µg/disc: 200 μg/disc
Procedure: (§1) The growth medium was prepared by addition of Müller-Hinton agar (38 g) to 1 L distilled water under vigorous stirring and boiled for 10 min until complete dissolution. After cooling to 25° C., the pH value of the medium was 7.3±0.1. The medium was sterilized in an autoclave at 121° C. for 15 min at 20 psi, cooled to 45-50° C. and dispended into sterile Petri dishes on a leveled, horizontal surface to give uniform depth. Stock solutions of the microorganisms were incubated at 37° C. for 24 h and the turbidity of these microbial colony were adjusted visually with sterile saline (0.85% w/v NaCl) to 0.5 McFarland standards (bioMerieux, SA (France) they are made from barium sulfate (BaSO4). Within 15 min after adjusting the turbidity of the suspensions, the Petri dishes were inoculated using sterile cotton buds. The prepared antibiotic assay discs were placed on the surface of the seeded Müller-Hinton agar using flame sterilized forceps.
(§2) Stock solutions of compounds of Formula I, Ia, Ib and Formula II, IIa, pharmaceutically acceptable salts thereof, and metal complexes thereof were made in DMSO and were micropipetted onto the discs for 25 to 200 μg/disc. The discs were dried at ambient temperature for 30-50 min before placement onto the seeded Petri dishes which were then incubated at 37° C. for 24 h. Averaged inhibition zone diameters measurements (mm) have an accuracy of ±0.5 mm; adjacent overlapping ZOI were determined using radii measurements. Antibiotic disc like (sulfamethoxazole 23.75 μg trimethoprim 1.25 μg)/disc, Gentamicin 10 μg/disc and DMSO were used as positive and negative standards (control).
(§3) Antimicrobial test was carried out to evaluate the efficacy of compounds of Formula I, Ia, Ib and Formula II, IIa, pharmaceutically acceptable salts thereof, and metal complexes thereof, as well as control tests with control compounds, against six major pathogenic bacteria namely Bacillus cereus, Pseudomonas aeruginosa, Klebsiella pneumonia, Proteus vulgaris, Staphylococcus aureus and Escherichia coli.

P. vulgaris = assay: Disc diffusion zone of inhibition (Example 2); assay type: cell-based, Proteus vulgaris; conditions: for zone of inhibition at 200 µg/disc: 200 μg/disc
Procedure: as §1, §2, §3

B. cereus [1] = assay: Disc diffusion zone of inhibition (Example 2); assay type: cell-based, Bacillus cereus; conditions: for zone of inhibition at 50 µg/disc: 50 μg/disc; for zone of inhibition at 200 µg/disc: 200 μg/disc
Procedure: as §1, §2, §3

S. aureus [2] = assay: Disc diffusion zone of inhibition (Example 2); assay type: cell-based, Staphylococcus aureus; conditions: for zone of inhibition at 50 µg/disc: 50 μg/disc
Procedure: as §1, §2, §3

E. coli = assay: Disc diffusion zone of inhibition (Example 2); assay type: cell-based, Escherichia coli; conditions: for zone of inhibition at 200 µg/disc: 200 μg/disc
Procedure: as §1, §2, §3

[3] = DPPH antioxidant activity test; conditions: 50 μg compound in 3 mL methanol; DPPH 150 μL 1 mM; 30 min, 25 °C; absorbance 517 nm
Procedure: In addition to antibacterial properties, antioxidant activity was assessed in the compounds of Formula I and II and metal complexes thereof as antioxidant compounds play an important role in remediating the toxic effects of reactive oxygen species and other free radicals. The main characteristic of an antioxidant compound is its ability to trap free radicals. Highly reactive free radicals and oxygen species are present in biological systems from a wide variety of sources. Free radical damage is known to occur during bacterial and other microbial infections. Free radicals are produced by cells of the immune system during an active infection, and generally as a result of the inflammatory processes.
DPPH (2,2-diphenyl-1-picryl-hydrazyl, 150 μL, 1 mM solution in methanol) was added to 3 mL methanol in a cuvette (0.5 in diameter) and UV-vis absorption recorded at 517 nm for baseline reading. In a cuvette, DPPH (150 μL, 1 mM solution in methanol) was added to a solution containing compound in 3 mL methanol. The reaction was allowed to stir at 25±1° C. for 30 min under exclusion of light. Absorbance was recorded at 517 nm against reference cuvette filled with methanol.

K. pnemonia = assay: Disc diffusion zone of inhibition (Example 2); assay type: cell-based, Klebsiella pneumonia; conditions: for zone of inhibition at 200 µg/disc: 200 μg/disc
Procedure: as §1, §2, §3

B. cereus [4] = assay: Disc diffusion zone of inhibition (Example 2); assay type: cell-based; conditions: Bacillus cereus
S. aureus [5] = assay: Disc diffusion zone of inhibition (Example 2); assay type: cell-based; conditions: Staphylococcus aureus
[6] = system: Pseudomonas aeruginosa (#27853); assay: In vitro disc diffusion assay, ZOI (Example 3); assay type: cell-based; conditions: P. aeruginosa; control; 10 μg/disc
Procedure: (§4) Sterile assay discs (6 mm diameter) were obtained from VWR Whatman and antibiotic assay discs (6 mm diameter) containing getamicin (10 μg/disc) and the combination drug sulfamethoxazole 23.75 μg/disc and trimethoprim 1.25 μg/disc were obtained from Becton, Dickinson and Company (USA). Dimethyl sulfoxide (DMSO) for microbial experiments was BioReagent™ grade and was purchased from Sigma-Aldrich. The nutrient broth and Müller-Hinton agar was purchased from Becton, Dickinson and Company (USA). Bacillus cereus, Pseudomonas aeruginosa (#27853), Klebsiella pneumonia (#13883), Proteus vulgaris (#13315), Staphylococcus aureus (#25923) and Escherichia coli (#25922) strains were obtained from the American Type Culture Collection (ATCC). All materials in contact with antimicrobial matter was treated for 40 min at 121° C. and 20 psi in a biohazard autoclave bag prior to waste disposing or washing. McFarland turbity standards containing barium sulfate were obtained from bioMérieux.
as §1, with “the” for “these”, “colonies” for “colony”, “standards.” for “standards (bioMerieux, SA (France) they are made from barium sulfate (BaSO4).”
(§5) Stock solutions of compounds and the Cu complexed compounds were made in DMSO and were micropipetted onto the discs for 25 to 200 μg compound/disc. The discs were dried at ambient temperature for 30-50 min before placement onto the seeded Petri dishes which were then incubated at 37° C. for 24 h. Averaged inhibition zone measurements (mm) have an accuracy of ±0.5 mm; adjacent overlapping ZOI were determined using radii measurements.

Bacillus cereus = assay: In vitro disc diffusion assay, ZOI (Example 3); assay type: cell-based; conditions: B. cereus; control; 10 μg/disc
Procedure: as §4
as §1, with “the” for “these”, “colonies” for “colony”, “standards.” for “standards (bioMerieux, SA (France) they are made from barium sulfate (BaSO4).”
as §5

[7] = system: Staphylococcus aureus (#25923); assay: In vitro disc diffusion assay, ZOI (Example 3); assay type: cell-based; conditions: S. aureus; control; 10 μg/disc
Procedure: as §4
as §1, with “the” for “these”, “colonies” for “colony”, “standards.” for “standards (bioMerieux, SA (France) they are made from barium sulfate (BaSO4).”
as §5

[8] = system: Escherichia coli (#25922); assay: In vitro disc diffusion assay, ZOI (Example 3); assay type: cell-based; conditions: E. coli; control; 10 μg/disc
Procedure: as §4
as §1, with “the” for “these”, “colonies” for “colony”, “standards.” for “standards (bioMerieux, SA (France) they are made from barium sulfate (BaSO4).”
as §5

[9] = system: Proteus vulgaris (#13315); assay: In vitro disc diffusion assay, ZOI (Example 3); assay type: cell-based; conditions: P. vulgaris; control; 10 μg/disc
Procedure: as §4
as §1, with “the” for “these”, “colonies” for “colony”, “standards.” for “standards (bioMerieux, SA (France) they are made from barium sulfate (BaSO4).”
as §5

[10] = system: Klebsiella pneumonia (#13883); assay: In vitro disc diffusion assay, ZOI (Example 3); assay type: cell-based; conditions: K. pnemonia; control; 10 μg/disc
Procedure: as §4
as §1, with “the” for “these”, “colonies” for “colony”, “standards.” for “standards (bioMerieux, SA (France) they are made from barium sulfate (BaSO4).”
as §5

[11] = Staphylococcus aureus, S. aureus
[12] = Staphylococcus aureus, S. aureus, 200 μg/disc, read-out: Zone of inhibition

`O=Cc1ccccn1` [2-pyridine carboxaldehyde] gave a zone of inhibition at 50 µg/disc (P. aeruginosa; Pseudomonas aeruginosa, 50 μg/disc) of 24 mm, a zone of inhibition at 50 µg/disc (P. vulgaris; Proteus vulgaris, 50 μg/disc) of 22 mm and a zone of inhibition at 50 µg/disc (B. cereus [1]; Bacillus cereus) of 20 mm. For the same compound, the zone of inhibition at 50 µg/disc (S. aureus [2]; [11]) was 15 mm, the zone of inhibition at 50 µg/disc (E. coli; Escherichia coli, 50 μg/disc) was 17 mm and the “% Antiox-Act” value [3] was 67.0%. For the same compound, the zone of inhibition at 50 µg/disc (K. pnemonia; Klebsiella pneumoniae, 50 μg/disc) was 23 mm.

Work on `O=Cc1cccnc1` [3-pyridine carboxaldehyde] yielded a zone of inhibition at 200 µg/disc (P. aeruginosa; Pseudomonas aeruginosa) of 23 mm, a zone of inhibition at 200 µg/disc (P. vulgaris; Proteus vulgaris) of 21 mm and a zone of inhibition at 200 µg/disc (B. cereus [1]; Bacillus cereus) of 27 mm. It also gave a zone of inhibition at 200 µg/disc (S. aureus [2]; [12]) of 32 mm, a zone of inhibition at 200 µg/disc (E. coli; Escherichia coli) of 24 mm and a zone of inhibition at 200 µg/disc (K. pnemonia; Klebsiella pneumoniae) of 22 mm.

Work on `O=Cc1ccncc1` [4-pyridine carboxaldehyde] yielded a zone of inhibition at 200 µg/disc (P. aeruginosa; Pseudomonas aeruginosa) of 27 mm, a zone of inhibition at 200 µg/disc (P. vulgaris; Proteus vulgaris) of 25 mm and a zone of inhibition at 200 µg/disc (B. cereus [1]; Bacillus cereus) of 29 mm. For the same compound, the zone of inhibition at 200 µg/disc (S. aureus [2]; [12]) was 30 mm, the zone of inhibition at 200 µg/disc (E. coli; Escherichia coli) was 25 mm and the zone of inhibition at 200 µg/disc (K. pnemonia; Klebsiella pneumoniae) was 26 mm.

In the case of `C(=N\c1ccccc1SCc1ccccc1CSc1ccccc1/N=C/c1ccccn1)/c1ccccn1` [Bis [N,N′-(2-pyridinyl methylidene)]α,α′-bis((o-aminophenyl)thio)-ortho-xylene], the zone of inhibition at 200 µg/disc (B. cereus [1]; Bacillus cereus) is reported as 7 mm, the zone of inhibition at 200 µg/disc (S. aureus [2]; [12]) is reported as 7 mm and the “% Antiox-Act” value [3] is reported as 61.3%.

In the case of `C(=N\c1ccccc1SCc1ccccc1)/c1ccccn1` [N-(2-pyridinylmethylidene) S-benzyl-ortho-aminothiophenol], the zone of inhibition at 75 µg/disc (B. cereus [1]; Bacillus cereus, 75 μg/disc) is reported as 7 mm, the zone of inhibition at 75 µg/disc (S. aureus [2]; Staphylococcus aureus, S. aureus, 75 μg/disc) is reported as 11 mm and the “% Antiox-Act” value [3] is reported as 65.8%.

For `Nc1ccccc1SCc1ccccc1` [S-benzyl-ortho-aminothiophenol, S-benzyl ortho-aminothiophenol], the zone of inhibition at 166 µg/disc (B. cereus [1]; Bacillus cereus, 166 μg/disc) was 12 mm, the zone of inhibition at 333 µg/disc (B. cereus [4]; 333 μg/disc) was 15 mm and the zone of inhibition at 666 µg/disc (B. cereus [4]; 666 μg/disc) was 16 mm. The zone of inhibition at 166 µg/disc (S. aureus [2]; Staphylococcus aureus, S. aureus, 166 μg/disc) was 11 mm, the zone of inhibition at 333 µg/disc (S. aureus [5]; 333 μg/disc) was 13 mm and the zone of inhibition at 666 µg/disc (S. aureus [5]; 666 μg/disc) was 15 mm.

With `Nc1ccccc1SCc1ccccc1CSc1ccccc1N` [α,α′-bis((o-aminophenyl)thio)-ortho-xylene] the zone of inhibition at 200 µg/disc (B. cereus [1]; Bacillus cereus) was 8 mm, the zone of inhibition at 200 µg/disc (S. aureus [2]; Staphylococcus aureus) was 7 mm and the “% Antiox-Act” value [3] was 60.8%.

For `Nc1ccccc1SCc1ccc(CSc2ccccc2N)cc1` [α,α′-bis((o-aminophenyl)thio)-para-xylene], the zone of inhibition at 50 µg/disc (B. cereus [1]; Bacillus cereus) was 9 mm, the zone of inhibition at 100 µg/disc (B. cereus [1]; Bacillus cereus, 100 μg/disc) was 16 mm and the zone of inhibition at 200 µg/disc (B. cereus [1]; Bacillus cereus) was 19 mm. The zone of inhibition at 50 µg/disc (S. aureus [2]; [11]) was 11 mm, the zone of inhibition at 100 µg/disc (S. aureus [2]; Staphylococcus aureus, S. aureus, 100 μg/disc) was 13 mm and the zone of inhibition at 200 µg/disc (S. aureus [2]; [12]) was 17 mm. The “% Antiox-Act” value [3] was 65.4%.

Gentamicin gave a ZOI [6] of 7 mm, a ZOI (Bacillus cereus) of 9.5 mm and a ZOI [7] of 9.5 mm. The ZOI [8] was 9 mm, the ZOI [9] was 9 mm and the ZOI [10] was 9.5 mm. For the same compound, the Zone of Inhibition (P. aeruginosa; 10 μg/disc) was 20 mm, the Zone of Inhibition (P. vulgaris; 10 μg/disc) was 24 mm and the Zone of Inhibition (B. cereus [1]; 10 μg/disc) was 25 mm. For the same compound, the Zone of Inhibition (S. aureus [2]; S. aureus, 10 μg/disc) was 25 mm, the Zone of Inhibition (E. coli; 10 μg/disc) was 24 mm and the Zone of Inhibition (K. pnemonia; 10 μg/disc) was 25 mm.
